Details: in vivo
Method: This single center, open label, fixed sequence trial consisted of two stages. Stage 1 was single oral administration of ZX-7101A tablets to the subjects under fasting condition, while Stage 2 included coadministration of ZX-7101A tablets and itraconazole capsules. Participants took ZX-7101A tablets 40 mg orally under fasting condition in the morning on D1 of Stage 1 and D31 of Stage 2. In drug-drug interaction clinical trials, the selected dose of the precipitant drug should maximize the potential to identify drug-drug interaction in the context of safety (i.e., achieving an exposure level close to the highest clinically recommended dose). […] The PK of itraconazole is influenced by its formulation, food intake, and gastrointestinal pH ([Liu et al., 2016]; [Allen et al., 2015]). […] Therefore, in this study, itraconazole was administered orally after meals to achieve maximum clinical exposure. Therefore, from D26 to D50 of Stage 2, the participants took 200 mg itraconazole capsules once daily for 25 consecutive days within 30 min after eating a standard breakfast (coadministration with ZX-7101A at the same time in the morning of D31 under fasting condition). […]
The safety of subjects was assessed in terms of adverse events (AEs) and serious adverse events (SAEs) after administration based on the findings of physical examination, vital signs, ECG, and laboratory tests.

## CCC(C)n1ncn(-c2ccc(N3CCN(c4ccc(OCC5COC(Cn6cncn6)(c6ccc(Cl)cc6Cl)O5)cc4)CC3)cc2)c1=O (centres unmarked) [Itraconazole, itraconazole]
human
  TEAE: COVID-19: 0 n (%)
  drug-related TEAE: None of the subjects developed any drug-related TEAE

— publication PMC12756401, “Effect of itraconazole on pharmacokinetics of ZX-7101A tablets in healthy Chinese subjects” (Frontiers in Pharmacology, 2025)
